Key:
[1] = biological target: S-adenosylmethionine synthase isoform type-2 (Homo sapiens, UniProt P31153); test: Inhibition of recombinant MAT2A (unknown origin) expressed in baculovirus infected Sf9 insect cells using L-methionine as substrate preincubated for 15 mins followed by substrate addition measured after 60 mins by Kinase-Glo Luminescent assay
[2] = test system: HCT-116; test: Antiproliferative activity against human HCT-116 cells expressing MTAP-/- assessed as inhibition of cell proliferation incubated for 4 days by fluorescence based assay; format: functional; conditions: HCT-116, 96 h
[3] = Tmax in ICR mouse at 10 mg/kg, po via gavage measured for 0.083 to 24 hrs by LC-MS analysis; format: ADME, organism-based; conditions: in vivo, time 0.083-24 hrs
[4] = Half life in ICR mouse at 10 mg/kg, po via gavage measured for 0.083 to 24 hrs by LC-MS analysis; format: ADME, organism-based; conditions: in vivo, time 0.083-24 hrs
[5] = Cmax in ICR mouse at 10 mg/kg, po via gavage measured for 0.083 to 24 hrs by LC-MS analysis; format: ADME, organism-based; design: time upper 24 hrs, dose 10 mg/kg, time lower 0.083 hrs, route po; conditions: in vivo
[6] = AUC in ICR mouse at 10 mg/kg, po via gavage measured for 0.083 to 24 hrs by LC-MS analysis; format: ADME, organism-based; design: dose 10 mg/kg, time upper 24 hrs, time lower 0.083 hrs, route po; conditions: in vivo
[7] = test system: HCT-116; test: Antiproliferative activity against human HCT-116 cells assessed as inhibition of cell proliferation incubated for 4 days by fluorescence based assay; format: functional; conditions: HCT-116, 96 h
[8] = test system: HCT-116; test: Antitumor activity against human HCT-116 cells expressing MTAP-/- xenografted in BALB/c mouse assessed as tumor growth inhibition at 50 mg/kg, po qd measured for 18 days relative to control; format: functional; conditions: HCT-116, 432 h, time 18 day, read-out: TGI

Chain of S-adenosylmethionine synthase isoform type-2 (P31153 whole entry, canonical isoform): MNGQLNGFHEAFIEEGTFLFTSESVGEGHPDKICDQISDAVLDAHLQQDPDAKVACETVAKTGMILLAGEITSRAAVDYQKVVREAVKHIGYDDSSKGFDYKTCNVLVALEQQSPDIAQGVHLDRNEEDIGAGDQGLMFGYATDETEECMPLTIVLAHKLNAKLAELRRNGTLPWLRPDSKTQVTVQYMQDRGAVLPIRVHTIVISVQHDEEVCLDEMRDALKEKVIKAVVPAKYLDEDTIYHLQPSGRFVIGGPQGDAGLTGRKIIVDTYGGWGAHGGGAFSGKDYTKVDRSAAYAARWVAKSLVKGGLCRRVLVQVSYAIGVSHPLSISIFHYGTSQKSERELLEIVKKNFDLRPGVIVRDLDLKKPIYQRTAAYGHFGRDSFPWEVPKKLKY

Row | SMILES | IC50 [1] | IC50 [2] | further results
1 | CCOc1ncc2cc(-c3ccc4ncn5c4c3OCC5)c(=O)n(-c3ccc(OC(F)F)cc3)c2n1 | > 1000 nM | > 10000 nM | –
2 | CN1CCn2c(nc3ccc(-c4cc5cnc(N6CCC6)nc5n(-c5ccc(OC(F)F)cc5)c4=O)cc32)C1 | 324 nM | 6120 nM | –
3 | CCOc1ncc2cc(-c3ccc4nc5n(c4c3)CCN(C(C)C)C5)c(=O)n(-c3ccc(OC(F)F)cc3)c2n1 | 17 nM | 53 nM | –
4 | CC(C)Oc1ncc2cc(-c3ccc4nc5n(c4c3)CCN(C)C5)c(=O)n(-c3ccc(OC(F)F)cc3)c2n1 | 27 nM | 84 nM | –
5 | CCOc1ncc2cc(-c3ccc4nc5n(c4c3)CCN(CC#N)C5)c(=O)n(-c3ccc(OC(F)F)cc3)c2n1 | 20 nM | 56 nM | –
6 | CCOc1ccc2c(=O)n(-c3ccc4nn5c(c4c3)CN(C)CC5)c(=O)n(-c3ccc(OC(F)F)cc3)c2n1 | 28 nM | 82 nM | IC50 [7]: > 10000 nM
7 | CCOc1ncc2cc(-c3ccc4nc5n(c4c3)CCN(C)C5)c(=O)n(-c3ccc(OC)nc3)c2n1 | 132 nM | 792 nM | –
8 | CCOc1ncc2cc(-c3cc4c5c(c3)ncn5CCO4)c(=O)n(-c3ccc(OC(F)F)cc3)c2n1 | 72 nM | 447 nM | –
9 | COc1ccc(-c2c(Nc3ccccn3)[nH]c3c(C4=CCCCC4)c(-c4ccccc4)nn3c2=O)cc1 | – | 244 nM | inhibition in vivo at 50 mg/kg [8]: 34%

Further lines, with some results ahead:

Row | IC50 [1] | IC50 [2] | SMILES | further results
10 | 34 nM | 355 nM | CCOc1ccc2cc(-c3ccc4nn(C)cc4c3)c(=O)n(-c3ccc(OC(F)F)cc3)c2c1 | –
11 | 14 nM | 34 nM | CN1CCn2c(nc3ccc(-c4cc5cnc(C6CC6)nc5n(-c5ccc(OC(F)F)cc5)c4=O)cc32)C1 | Tmax [3]: 0.5 h; half-life [4]: 4 h; Cmax [5]: 1740 ng/mL; AUC [6]: 11400 ng·h/mL
12 | 37 nM | 159 nM | CN1CCn2c(nc3ccc(-c4cc5cnc(OCC(F)F)nc5n(-c5ccc(OC(F)F)cc5)c4=O)cc32)C1 | –
13 | 23 nM | 80 nM | CCOc1ncc2cc(-c3ccc4nn5c(c4c3)C(=O)N(C)CC5)c(=O)n(-c3ccc(OC(F)F)cc3)c2n1 | –
14 | 32 nM | 145 nM | Cn1cc2cc(-n3cc4cnc(NCC(F)(F)F)nc4c(-c4ccc(Cl)cc4)c3=O)ccc2n1 | –
15 | > 1000 nM | > 10000 nM | CCOc1ncc2c(n1)n(-c1ccc(OC(F)F)cc1)c(=O)n2Cc1ccc2nn(C)cc2c1 | –
